In patent publication US10392391B2 (Vertex Pharmaceuticals Incorporated, priority 2012, dated 2019):

Target: ATR kinase (full-length ATR) (Homo sapiens (Human), UniProt Q13535)
Experiment: ATR inhibition assay (radioactive-phosphate incorporation)
Format: biochemical
Settings: not given
Method in brief: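 Ki(app) was fitted by non-linear regression to background-corrected initial rates. Full-length ATR (5 nM) phosphorylated 800 μM peptide using 10 μM [γ-33P]ATP at 25° C in Tris/HCl pH 7.5 buffer with MgCl2, DTT and 7% DMSO. After 10-minute compound pre-incubation and 24-hour reaction, phosphocellulose filters were scintillation counted.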

ATR kinase (full-length ATR), sequence (Q13535 whole entry): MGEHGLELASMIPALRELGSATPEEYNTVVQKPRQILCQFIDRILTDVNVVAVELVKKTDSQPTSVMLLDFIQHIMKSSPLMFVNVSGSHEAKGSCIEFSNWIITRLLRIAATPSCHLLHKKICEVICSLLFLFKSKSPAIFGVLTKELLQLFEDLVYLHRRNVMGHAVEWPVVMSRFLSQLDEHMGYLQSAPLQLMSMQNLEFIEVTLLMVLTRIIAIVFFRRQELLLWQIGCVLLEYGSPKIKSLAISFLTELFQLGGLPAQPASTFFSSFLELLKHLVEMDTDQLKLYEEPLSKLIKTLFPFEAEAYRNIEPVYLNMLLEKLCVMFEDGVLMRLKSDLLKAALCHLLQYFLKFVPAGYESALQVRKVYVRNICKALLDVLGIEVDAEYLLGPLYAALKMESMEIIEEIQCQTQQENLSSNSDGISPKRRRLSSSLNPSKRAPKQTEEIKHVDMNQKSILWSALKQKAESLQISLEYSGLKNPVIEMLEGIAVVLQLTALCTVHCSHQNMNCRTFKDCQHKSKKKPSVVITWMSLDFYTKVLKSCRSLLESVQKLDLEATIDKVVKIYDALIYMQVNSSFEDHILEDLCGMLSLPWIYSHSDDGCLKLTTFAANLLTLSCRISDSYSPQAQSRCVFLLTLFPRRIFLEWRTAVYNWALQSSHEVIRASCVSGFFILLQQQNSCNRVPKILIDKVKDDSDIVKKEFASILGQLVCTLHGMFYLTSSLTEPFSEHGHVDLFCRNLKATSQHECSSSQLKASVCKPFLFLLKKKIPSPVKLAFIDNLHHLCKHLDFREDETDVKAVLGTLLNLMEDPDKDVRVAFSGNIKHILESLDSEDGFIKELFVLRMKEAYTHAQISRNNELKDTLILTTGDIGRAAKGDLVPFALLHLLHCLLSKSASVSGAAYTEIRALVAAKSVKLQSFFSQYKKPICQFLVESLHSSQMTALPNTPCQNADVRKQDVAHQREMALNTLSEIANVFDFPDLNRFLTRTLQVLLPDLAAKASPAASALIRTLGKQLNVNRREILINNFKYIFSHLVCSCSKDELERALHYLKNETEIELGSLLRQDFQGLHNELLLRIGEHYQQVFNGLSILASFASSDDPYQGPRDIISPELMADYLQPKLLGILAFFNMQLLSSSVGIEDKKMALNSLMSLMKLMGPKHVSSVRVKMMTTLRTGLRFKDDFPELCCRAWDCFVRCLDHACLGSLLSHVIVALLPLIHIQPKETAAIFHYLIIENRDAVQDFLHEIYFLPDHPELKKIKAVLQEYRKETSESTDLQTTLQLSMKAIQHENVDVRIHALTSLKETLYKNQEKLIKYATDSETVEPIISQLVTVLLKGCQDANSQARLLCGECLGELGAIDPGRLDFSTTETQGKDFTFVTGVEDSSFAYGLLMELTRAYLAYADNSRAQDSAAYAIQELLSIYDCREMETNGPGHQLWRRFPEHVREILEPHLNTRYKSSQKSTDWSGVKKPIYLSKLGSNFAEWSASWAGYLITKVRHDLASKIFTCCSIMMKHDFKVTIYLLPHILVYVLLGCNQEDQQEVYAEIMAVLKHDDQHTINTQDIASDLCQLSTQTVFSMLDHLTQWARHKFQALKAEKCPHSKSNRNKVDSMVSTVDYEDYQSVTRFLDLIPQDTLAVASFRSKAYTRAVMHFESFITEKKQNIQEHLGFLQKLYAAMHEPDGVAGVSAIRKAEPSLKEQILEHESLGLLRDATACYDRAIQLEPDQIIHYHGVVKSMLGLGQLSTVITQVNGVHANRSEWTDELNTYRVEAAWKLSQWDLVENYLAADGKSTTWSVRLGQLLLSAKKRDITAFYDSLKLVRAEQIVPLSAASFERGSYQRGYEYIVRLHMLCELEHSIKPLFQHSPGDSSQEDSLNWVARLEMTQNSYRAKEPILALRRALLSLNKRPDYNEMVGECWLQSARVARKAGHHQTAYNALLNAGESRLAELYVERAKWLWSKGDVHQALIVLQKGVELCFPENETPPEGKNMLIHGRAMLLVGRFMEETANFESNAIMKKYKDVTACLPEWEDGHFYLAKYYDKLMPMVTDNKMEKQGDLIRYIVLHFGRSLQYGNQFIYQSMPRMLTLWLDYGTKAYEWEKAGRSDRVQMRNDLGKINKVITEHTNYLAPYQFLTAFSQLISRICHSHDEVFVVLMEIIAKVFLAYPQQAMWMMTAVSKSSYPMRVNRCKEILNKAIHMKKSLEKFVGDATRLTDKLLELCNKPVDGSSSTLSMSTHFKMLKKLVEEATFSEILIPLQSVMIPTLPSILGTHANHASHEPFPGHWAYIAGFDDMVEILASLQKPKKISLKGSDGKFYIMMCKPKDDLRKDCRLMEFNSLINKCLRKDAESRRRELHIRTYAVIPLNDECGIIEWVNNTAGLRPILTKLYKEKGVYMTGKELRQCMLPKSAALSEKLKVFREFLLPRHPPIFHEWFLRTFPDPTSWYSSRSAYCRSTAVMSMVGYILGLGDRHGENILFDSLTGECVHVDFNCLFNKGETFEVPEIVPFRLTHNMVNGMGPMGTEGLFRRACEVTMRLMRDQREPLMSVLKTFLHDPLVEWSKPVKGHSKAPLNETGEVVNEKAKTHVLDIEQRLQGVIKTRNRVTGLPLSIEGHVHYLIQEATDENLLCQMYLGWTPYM

Ki	Structure (SMILES)
1000 to 5000 nM	CN1CCC(Oc2c(Cl)cncc2NC(=O)c2c(N)nn3cc(Cl)cnc23)CC1 [I-O-46, 2-amino-6-chloro-N-(5-chloro-4-((1-methylpiperidin-4-yl)oxy)pyridin-3-yl)pyrazolo[1,5-a]pyrimidine-3-carboxamide]
1000 to 5000 nM	CN(C)CCCOc1ccncc1NC(=O)c1c(N)nn2cc(Cl)cnc12 [I-O-52, 2-amino-6-chloro-N-(4-(3-(dimethylamino)propoxy)pyridin-3-yl)pyrazolo[1,5-a]pyrimidine-3-carboxamide]

Same assay, conditions: Ki(app), 5 nM full-length ATR, 10 μM ATP, 25° C.

Structure (SMILES)	Ki
CN1CCN(C(=O)[C@H]2CC[C@@H](Oc3ccncc3NC(=O)c3c(N)nn4cc(F)cnc34)CC2)CC1 [I-O-19, 2-amino-6-fluoro-N-(4-(((1s,4s)-4-(4-methylpiperazine-1-carbonyl)cyclohexyl)oxy)pyridin-3-yl)pyrazolo[1,5-a]pyrimidine-3-carboxamide]	10 to 1000 nM
CN1CCC(Oc2ccncc2NC(=O)c2c(N)nn3cc(CC#N)cnc23)CC1 [I-O-23, 2-amino-6-(cyanomethyl)-N-(4-((1-methylpiperidin-4-yl)oxy)pyridin-3-yl)pyrazolo[1,5-a]pyrimidine-3-carboxamide]	10 to 1000 nM
N#CCc1cnc2c(C(=O)Nc3cnccc3Oc3ccccc3)c(N)nn2c1 [I-O-25, 2-amino-6-(cyanomethyl)-N-(4-phenoxypyridin-3-yl)pyrazolo[1,5-a]pyrimidine-3-carboxamide]	< 10 nM
COc1cc(Cl)ncc1NC(=O)c1c(N)nn2cc(CC#N)cnc12 [I-O-27, 2-amino-N-(6-chloro-4-methoxypyridin-3-yl)-6-(cyanomethyl)pyrazolo[1,5-a]pyrimidine-3-carboxamide]	< 10 nM
N#CCc1cnc2c(C(=O)Nc3cnccc3OC3CCOCC3)c(N)nn2c1 [I-O-30, 2-amino-6-(cyanomethyl)-N-(4-((tetrahydro-2H-pyran-4-yl)oxy)pyridin-3-yl)pyrazolo[1,5-a]pyrimidine-3-carboxamide]	< 10 nM
N#CCc1cnc2c(C(=O)Nc3cnccc3O[C@@H]3CCOC3)c(N)nn2c1 [I-O-31, (R)-2-amino-6-(cyanomethyl)-N-(4-((tetrahydrofuran-3-yl)oxy)pyridin-3-yl)pyrazolo[1,5-a]pyrimidine-3-carboxamide]	< 10 nM
N#CCc1cnc2c(C(=O)Nc3cnccc3OC3CCC3)c(N)nn2c1 [I-O-36, 2-amino-6-(cyanomethyl)-N-(4-cyclobutoxypyridin-3-yl)pyrazolo[1,5-a]pyrimidine-3-carboxamide]	< 10 nM
N#CCc1cnc2c(C(=O)Nc3cnccc3OC3COC3)c(N)nn2c1 [I-O-38, 2-amino-6-(cyanomethyl)-N-(4-(oxetan-3-yloxy)pyridin-3-yl)pyrazolo[1,5-a]pyrimidine-3-carboxamide]	< 10 nM
N#CCc1cnc2c(C(=O)Nc3cnccc3OC3CCCCC3)c(N)nn2c1 [I-O-39, 2-amino-6-(cyanomethyl)-N-(4-(cyclohexyloxy)pyridin-3-yl)pyrazolo[1,5-a]pyrimidine-3-carboxamide]	< 10 nM
N#CCc1cnc2c(C(=O)Nc3cnccc3OC3CCCOC3)c(N)nn2c1 (stereo not shown) [I-O-41, 2-amino-6-(cyanomethyl)-N-(4-((tetrahydro-2H-pyran-3-yl)oxy)pyridin-3-yl)pyrazolo[1,5-a]pyrimidine-3-carboxamide]	< 10 nM
N#CCc1cnc2c(C(=O)Nc3cnccc3O[C@H]3CCOC3)c(N)nn2c1 [I-O-42, (S)-2-amino-6-(cyanomethyl)-N-(4-((tetrahydrofuran-3-yl)oxy)pyridin-3-yl)pyrazolo[1,5-a]pyrimidine-3-carboxamide]	< 10 nM
N#CCc1cnc2c(C(=O)Nc3cnccc3OC3CCCC3)c(N)nn2c1 [I-O-43, 2-amino-6-(cyanomethyl)-N-(4-(cyclopentyloxy)pyridin-3-yl)pyrazolo[1,5-a]pyrimidine-3-carboxamide]	< 10 nM
CN(C)CCOCCOc1ccncc1NC(=O)c1c(N)nn2cc(Cl)cnc12 [I-O-47, 2-amino-6-chloro-N-(4-(2-(2-(dimethylamino)ethoxy)ethoxy)pyridin-3-yl)pyrazolo[1,5-a]pyrimidine-3-carboxamide]	10 to 1000 nM
CN1CCC[C@@H]1COc1ccncc1NC(=O)c1c(N)nn2cc(Cl)cnc12 [I-O-49, (R)-2-amino-6-chloro-N-(4-((1-methylpyrrolidin-2-yl)methoxy)pyridin-3-yl)pyrazolo[1,5-a]pyrimidine-3-carboxamide]	10 to 1000 nM
CN1CCCC(Oc2ccncc2NC(=O)c2c(N)nn3cc(Cl)cnc23)C1 (stereo not shown) [I-O-51, 2-amino-6-chloro-N-(4-((1-methylpiperidin-3-yl)oxy)pyridin-3-yl)pyrazolo[1,5-a]pyrimidine-3-carboxamide]	10 to 1000 nM

Now from value to molecule:

Ki	Structure (SMILES)
10 to 1000 nM	CN1CCC(Oc2ccncc2NC(=O)c2c(N)nn3cc(F)cnc23)CC1 [I-O-12, 2-amino-6-fluoro-N-(4-((1-methylpiperidin-4-yl)oxy)pyridin-3-yl)pyrazolo[1,5-a]pyrimidine-3-carboxamide]
10 to 1000 nM	COC(=O)[C@H]1CC[C@H](Oc2ccncc2NC(=O)c2c(N)nn3cc(F)cnc23)CC1 [I-O-13, (1r,4)-methyl 4-((3-(2-amino-6-fluoropyrazolo[1,5-a]pyrimidine-3-carboxamido)pyridin-4-yl)oxy)cyclohexanecarboxylate]
10 to 1000 nM	CCOc1ccncc1NC(=O)c1c(N)nn2cc(F)cnc12 [I-O-14, 2-amino-N-(4-ethoxypyridin-3-yl)-6-fluoropyrazolo[1,5-a]pyrimidine-3-carboxamide]
10 to 1000 nM	Nc1nn2cc(F)cnc2c1C(=O)Nc1cnccc1O[C@H]1Cc2nccn2C1 [I-O-16, (S)-2-amino-N-(4-((6,7-dihydro-5H-pyrrolo[1,2-a]imidazol-6-yl)oxy)pyridin-3-yl)-6-fluoropyrazolo[1,5-a]pyrimidine-3-carboxamide]
10 to 1000 nM	CN(C)C(=O)[C@H]1CC[C@@H](Oc2ccncc2NC(=O)c2c(N)nn3cc(F)cnc23)CC1 [I-O-17, 2-amino-N-(4-(((1s,4s)-4-(dimethylcarbamoyl)cyclohexyl)oxy)pyridin-3-yl)-6-fluoropyrazolo[1,5-a]pyrimidine-3-carboxamide]
10 to 1000 nM	COC(=O)[C@H]1CC[C@@H](Oc2ccncc2NC(=O)c2c(N)nn3cc(F)cnc23)CC1 [I-O-18, (1s,4s)-methyl 4-((3-(2-amino-6-fluoropyrazolo[1,5-a]pyrimidine-3-carboxamido)pyridin-4-yl)oxy)cyclohexanecarboxylate]
10 to 1000 nM	CCC(C#N)c1cnc2c(C(=O)Nc3cnccc3OC)c(N)nn2c1 (stereo not shown) [I-O-20, 2-amino-6-(1-cyanopropyl)-N-(4-methoxypyridin-3-yl)pyrazolo[1,5-a]pyrimidine-3-carboxamide]
10 to 1000 nM	COc1ccncc1NC(=O)c1c(N)nn2cc(C(C)C#N)cnc12 (stereo not shown) [I-O-21, 2-amino-6-(1-cyanoethyl)-N-(4-methoxypyridin-3-yl)pyrazolo[1,5-a]pyrimidine-3-carboxamide]
< 10 nM	CN(C)CCOc1ccncc1NC(=O)c1c(N)nn2cc(CC#N)cnc12 [I-O-24, 2-amino-6-(cyanomethyl)-N-(4-(2-(dimethylamino)ethoxy)pyridin-3-yl)pyrazolo[1,5-a]pyrimidine-3-carboxamide]
< 10 nM	COc1ccncc1NC(=O)c1c(N)nn2cc(CC#N)cnc12 [I-O-26, 2-amino-6-(cyanomethyl)-N-(4-methoxypyridin-3-yl)pyrazolo[1,5-a]pyrimidine-3-carboxamide]
< 10 nM	CCOc1ccncc1NC(=O)c1c(N)nn2cc(CC#N)cnc12 [I-O-28, 2-amino-6-(cyanomethyl)-N-(4-ethoxypyridin-3-yl)pyrazolo[1,5-a]pyrimidine-3-carboxamide]
< 10 nM	COCCOc1ccncc1NC(=O)c1c(N)nn2cc(CC#N)cnc12 [I-O-29, 2-amino-6-(cyanomethyl)-N-(4-(2-methoxyethoxy)pyridin-3-yl)pyrazolo[1,5-a]pyrimidine-3-carboxamide]
< 10 nM	N#CCc1cnc2c(C(=O)Nc3cnccc3OCC3CC3)c(N)nn2c1 [I-O-32, 2-amino-6-(cyanomethyl)-N-(4-(cyclopropylmethoxy)pyridin-3-yl)pyrazolo[1,5-a]pyrimidine-3-carboxamide]
< 10 nM	N#CCc1cnc2c(C(=O)Nc3cnccc3OCCO)c(N)nn2c1 [I-O-33, 2-amino-6-(cyanomethyl)-N-(4-(2-hydroxyethoxy)pyridin-3-yl)pyrazolo[1,5-a]pyrimidine-3-carboxamide]
< 10 nM	N#CCc1cnc2c(C(=O)Nc3cnccc3OCC(F)(F)F)c(N)nn2c1 [I-O-34, 2-amino-6-(cyanomethyl)-N-(4-(2,2,2-trifluoroethoxy)pyridin-3-yl)pyrazolo[1,5-a]pyrimidine-3-carboxamide]
< 10 nM	CC(C)Oc1ccncc1NC(=O)c1c(N)nn2cc(CC#N)cnc12 [I-O-35, 2-amino-6-(cyanomethyl)-N-(4-isopropoxypyridin-3-yl)pyrazolo[1,5-a]pyrimidine-3-carboxamide]
< 10 nM	N#CCc1cnc2c(C(=O)Nc3cnccc3OCCCO)c(N)nn2c1 [I-O-40, 2-amino-6-(cyanomethyl)-N-(4-(3-hydroxypropoxy)pyridin-3-yl)pyrazolo[1,5-a]pyrimidine-3-carboxamide]
10 to 1000 nM	Nc1nn2cc(F)cnc2c1C(=O)Nc1cnccc1OC1CCS(=O)(=O)CC1 [I-O-45, 2-amino-N-(4-((1,1-dioxidotetrahydro-2H-thiopyran-4-yl)oxy)pyridin-3-yl)-6-fluoropyrazolo[1,5-a]pyrimidine-3-carboxamide]
10 to 1000 nM	CN(C)CCOc1ccncc1NC(=O)c1c(N)nn2cc(Cl)cnc12 [I-O-48, 2-amino-6-chloro-N-(4-(2-(dimethylamino)ethoxy)pyridin-3-yl)pyrazolo[1,5-a]pyrimidine-3-carboxamide]
10 to 1000 nM	CN1CCC[C@H]1COc1ccncc1NC(=O)c1c(N)nn2cc(Cl)cnc12 [I-O-50, (S)-2-amino-6-chloro-N-(4-((1-methylpyrrolidin-2-yl)methoxy)pyridin-3-yl)pyrazolo[1,5-a]pyrimidine-3-carboxamide]
